Measurements published in patent US20080319083A1, “MEDICINE FOR TRANSNASAL ADMINISTRATION” (priority 2006, published 2008).
Structures can show the parent of a compound that is named as a salt. Where two headings read alike, the source gives them in different places.

Tests used:
[1] = In vivo intravenous administration test of milnacipran hydrochloride (Test Example 2); parameters: species or system Wistar male rats
Source text: Each rat was fixed in a face-up position on a fixed base and underwent an operation of the airway and esophagus, to thereby expose the left and right jugular veins. […]

[2] = In vivo intranasal administration test of milnacipran hydrochloride (Test Example 3); parameters: species or system Wistar male rats; conditions: i.n. 20 mg/kg
Protocol: Each rat was fixed in a face-up position on a fixed base, and the left and right jugular veins were exposed to collect blood. […] The time of intranasal administration was defined as 0 minutes, and blood samples were collected using an injection syringe previously treated with heparin with time in an amount of 200 μL per injection.
The obtained data was analyzed based on the moment analysis to calculate the area under the plasma concentration-time curve (AUC), mean residence time (MRT), and mean absorption time (MAT). The cumulative absorption profile of milnacipran hydrochloride was calculated by the deconvolution method based on kinetic parameters determined from the intravenous administration test for an input function and based on plasma levels after intraduodenal or intranasal administration for an output function.

[3] = Transnasal administration experiment in closed system, plasma pharmacokinetics (Test Example 1)
Protocol: To 100 μL of plasma was added 300 μL of NH4Cl (pH 9), and the mixture was stirred for 30 seconds. Then, 500 μL of chloroform/2-isopropanol/n-heptane (60/14/26) was added, and the mixture was shaken for 2 minutes and centrifuged (4° C., 15,000 rpm, 5 min).
The chloroform layer (lower layer) obtained by centrifugation was transferred to another microtube, and the solvent was removed with flowing nitrogen. All the solvents were removed, and the extract was dissolved in 100 μL of a buffer used as a mobile phase for HPLC. Then, the solution was dispensed into a glass tube and injected to HPLC in an amount of 30 μL to measure the concentration of milnacipran hydrochloride.
The intravenous maximum plasma concentration (Cmax), maximum plasma concentration time (Tmax), area under the plasma concentration-time curve (AUC) and absorption ratio (F) were calculated. The area under the plasma concentration-time curve (AUC) was calculated from the trapezoid formula AUC represents an integrated value of the concentrations of plasma milnacipran absorbed and transferred to blood.
The obtained data was analyzed based on the nonlinear least-squares method program (algorithm: Damping Gauss-Newton method). AUC, MRT, MAT were derived from moment analysis. Meanwhile, the relative rate of the retention in the nasal cavity was evaluated by Formula (1) below.
A solution of urethane in isotonic sodium chloride solution (dosage 1.0 g/kg, 25 w/v %) was administered intraperitoneally to Wistar male rats, and the rats were anaesthetized: Each rat was fixed on a fixed base in a face-up position, and then the airway and esophagus surgeries was performed on the rat in according to the method of Hirai et. al (J. Pharm. Sci. 69:1411-1413 (1980)) to thereby expose the left and right jugular veins. The solution of milnacipran hydrochloride in isotonic sodium chloride solution was administered to the left the nasal cavity using a microsyringe, the top of which was attached to a silicone tube (dosage 20 mg/kg, concentration 100 mg/mL). Blood was corrected over time from the right jugular using a syringe previously treated with heparin. The blood samples were collected in an amount of 0.2 mL per injection, just 0 minute before transnasal administration, and 5, 10, 20, 30, 60, 90, 120, 180, 240, 300 and 360 minutes after the transnasal administration respectively. The collected blood samples were immediately centrifuged at 4° C. and 15,000 rpm (17,860 g) for 5 minutes, to thereby yield plasma samples (0.1 mL).

[4] = Transnasal administration experiment in opened system, plasma pharmacokinetics (Test Example 1); format: in vivo, Wistar male rats
Source text: AUC, MRT, MAT were derived from moment analysis. […] Each rat was fixed in a face-up position on a fixed base, and the right jugular vein was exposed to insert a catheter. After the nib of the catheter was indwelled in the atrium dextrum, the opened regions of the right jugular vein was sutured together using the medical suture thread with an attached needle (17 mm, angle ½ black nylon 5-0, Matsuda Sutures). After the sufficient recovery period, each rat was used for experiments. To the rats with the jugular vein catheterization, prepared by the above-described “1. […] Blood was collected via catheter over time using an injection syringe previously treated with heparin. […] After recovering from diethylether anesthesia, the rats was placed in gauges.

[5] = In vivo intraduodenal administration test of milnacipran hydrochloride (Test Example 3); parameters: species or system Wistar male rats; conditions: rat
Protocol: Each rat was fixed in a face-up position on a fixed base, and the left and right jugular veins were exposed to collect blood. The abdominal cavity was incised to take the duodenum out, and the downstream portion of the duodenum was ligated, followed by direct administration of the above-prepared isotonic sodium chloride solution containing milnacipran hydrochloride (dosage 20 mg/kg, concentration 20 mg/mL) to the duodenum from the upstream portion. The time of duodenum administration was defined as 0 minutes, and blood samples were collected using an injection syringe previously treated with heparin with time in an amount of 200 μL per injection. […] The obtained data was analyzed based on the moment analysis to calculate the area under the plasma concentration-time curve (AUC), mean residence time (MRT), and mean absorption time (MAT). The cumulative absorption profile of milnacipran hydrochloride was calculated by the deconvolution method based on kinetic parameters determined from the intravenous administration test for an input function and based on plasma levels after intraduodenal or intranasal administration for an output function.

[6] = Evaluation of transfer of milnacipran hydrochloride to central nerve system, CSF concentration (Test Example 4); parameters: species or system Wistar male rats; conditions: in vivo
Protocol: As an indicator of transfer to the central nerve system, the concentration of a drug in a cerebrospinal fluid (CSF) was measured. The same operations and administrations as Test Example 3 (in vivo mucosal absorption experiment) were performed (n=3) for intravenous administration, intraduodenal administration, and intranasal administration. Then, blood was collected with time from the jugular vein, and after a given length of time, CSF was collected. An injection needle previously cut was adhered to a silicon tube to prepare an instrument, the other end of which was connected to a syringe, and after a given length of time following drug administration, a puncture was made ventrally from the top of the back of the head of a rat to a depth of 5 to 6 mm with the top of the injection needle. Then, the syringe was drawn to collect CSF in an amount of about 200 μL in the silicon tube.
The obtained data was analyzed based on the moment analysis to calculate the area under the cerebrospinal fluid concentration-time curve (AUCCSF). The AUCCSF represents an integrated value of concentrations of milnacipran in CFS, absorbed and transferred to the brain. Transfer of a drug from the general circulation to CSF is controlled by permeation through a blood-brain barrier and is greatly affected by the concentration of the drug in blood. Therefore, in order to consider the effect of permeation through a blood-brain barrier, brain transfer was evaluated by comparing ratios of the concentrations in CSF to the protein unbound drug concentration in plasma at the time of collection of CSF. Meanwhile, the brain transfer ratio (Kpu) was calculated from an area under the CSF concentration-time curve, an area under the plasma concentration-time curve, and a plasma protein unbinding ratio (following Formula 3). A significant test was performed based on the Tukey-Kramer multiple comparison. Note that AUCplasma represents an integrated value of the plasma concentrations of milnacipran absorbed and transferred to blood.

[7] = In vivo intranasal administration test of milnacipran hydrochloride (Test Example 2); parameters: species or system Wistar male rats
Protocol: Each rat was fixed in a face-up position on a fixed base and underwent an operation of the airway and esophagus to adjust the physiological conditions to the same conditions as those of the intravenous administration test, to thereby expose the left and right jugular veins. […] An injection syringe previously treated with heparin was used to collect blood from the right jugular vein over time.
The cumulative absorption profile of milnacipran hydrochloride was determined by the deconvolution method using kinetic parameters determined from the intravenous administration test as an input function and plasma levels after transnasal administration as an output function.

in vivo = assay: in vivo; parameters: species or system Wistar male rats; conditions: male, Wistar, rat, iv, 20 mg/kg
Protocol: Each rat was fixed in a face-up position on a fixed base, and the left and right jugular veins were exposed to collect blood. The rats underwent an operation of the airway and esophagus to adjust the physiological conditions to the same conditions as those of the intranasal administration test, and the above-prepared isotonic sodium chloride solution containing milnacipran hydrochloride (dosage 20 mg/kg, concentration 20 mg/mL) was administered from the right jugular vein, followed by collection of blood using an injection syringe previously treated with heparin with time in an amount of 200 μL per injection. […] The obtained data was analyzed based on the moment analysis to calculate the area under the plasma concentration-time curve (AUC), mean residence time (MRT), and mean absorption time (MAT). The cumulative absorption profile of milnacipran hydrochloride was calculated by the deconvolution method based on kinetic parameters determined from the intravenous administration test for an input function and based on plasma levels after intraduodenal or intranasal administration for an output function.

[8] = male, Wistar, rat, in vivo, iv, 20 mg/kg
[9] = male, Wistar, in vivo, inhaled or intranasal, rat plasma
[10] = male, Wistar, rat, in vivo, inhaled or intranasal, 20 mg/kg
[11] = male, Wistar, in vivo, inhaled or intranasal, rat plasma, transnasal 20 mg/kg, opened system
[12] = male, Wistar, in vivo, 20 mg/kg
[13] = male, Wistar, rat, iv, 20 mg/kg

Work on `CCN(CC)C(=O)C1(c2ccccc2)CC1CN` (racemic) [milnacipran hydrochloride, cis-(±)-2-(aminomethyl)-N,N-diethyl-1-phenyl-cyclopropanecarboxyamide] yielded an AUC(0-inf) [1, 8] of 9680 ng·h/mL, an AUC(0-t) [1, 8] of 9430 ng·h/mL and a Vd [1, 8] of 0.123 L. For the same compound, the clearance [1, 8] was 2.69 mL/min, the B ([1]; rat plasma, i.v. 20 mg/kg) was 5580.51 ng/mL and the t1/2α ([1]; rat plasma, i.v. 20 mg/kg) was 6.221 min. The t1/2β ([1]; rat plasma, i.v. 20 mg/kg) was 1.0709 h, the α ([1]; rat plasma, i.v. 20 mg/kg) was 0.1114 min⁻¹ and the β ([1]; rat plasma, i.v. 20 mg/kg) was 0.01079 min⁻¹. It also gave an A ([1]; rat plasma, i.v. 20 mg/kg, two-compartment parameter) of 7085.09 ng/mL, a V1 ([1]; rat, i.v. 20 mg/kg) of 67.74 mL and a V2 ([1]; rat, i.v. 20 mg/kg) of 55.64 mL. It also gave a k10 ([1]; rat, i.v. 20 mg/kg) of 0.0218 min⁻¹, a k12 ([1]; rat, i.v. 20 mg/kg) of 0.0453 min⁻¹ and a k21 ([1]; rat, i.v. 20 mg/kg) of 0.0551 min⁻¹. The AUC(0-inf) [2, 9] was 8400 ng·h/mL, the Cmax [2, 9] was 5120 ng/mL and the MRT inf [2, 9] was 1.62 h. For the same compound, the Tmax [2, 9] was 0.333 h, the “F∞” value ([2]; rat) was 84.9% and the AUC(0-inf) [3, 10] was 8400 ng·h/mL. It also gave a Cmax [3, 10] of 5120 ng/mL, a Tmax [3, 10] of 0.333 h and an MRT inf ([3]; male, Wistar, rat, in vivo, inhaled or intranasal, 20 mg/kg, MRT∞, rat plasma, transnasal 20 mg/kg, closed system) of 1.88 h. The “MRT∞” value ([3]; rat plasma, transnasal 20 mg/kg, closed system, listed as Control) was 1.62 h, the “F∞” value ([3]; rat, transnasal 20 mg/kg, closed system, vs i.v. 20 mg/kg) was 84.9% and the AUC(0-inf) [4, 11] was 6120 ng·h/mL. For the same compound, the Cmax [4, 11] was 3040 ng/mL, the MRT inf [4, 11] was 1.77 h and the Tmax [4, 11] was 0.333 h. For the same compound, the “Fo/Fc (relative rate of the retention in the nasal cavity)” value ([4]; male, Wistar, rat, in vivo) was 72.8%, the “F∞” value ([4]; rat, transnasal 20 mg/kg, opened system) was 61.9% and the AUC(0-inf) [5, 12] was 7000 ng·h/mL. For the same compound, the Cmax [5, 12] was 3070 ng/mL, the MRT inf [5, 12] was 1.89 h and the Tmax [5, 12] was 1 h. The “F∞” value ([5]; i.d. 20 mg/kg) was 70.8%, the Cmax ([6]; male, Wistar, inhaled or intranasal, rat CSF, i.n. 20 mg/kg, read-out: Cmax (maximum CSF concentration)) was 4020 ng/mL and the Tmax ([6]; male, Wistar, inhaled or intranasal, rat CSF, i.n. 20 mg/kg, read-out: Tmax (time-to-maximum CSF concentration) (converted)) was 0.333 h. It also gave an AUC ([6]; male, Wistar, inhaled or intranasal, rat plasma, i.n. 20 mg/kg, read-out: AUCPlasma (converted)) of 8400 ng·h/mL, an AUC ([6]; male, Wistar, rat, 20 mg/kg) of 7000 ng·h/mL and a Cmax ([6]; male, Wistar, rat, 20 mg/kg) of 1010 ng/mL. The Tmax ([6]; male, Wistar, rat, 20 mg/kg) was 1 h, the “ratio of plasma concentration and CSF concentration” value ([6]; male, Wistar, rat, 20 mg/kg) was “significantly increased up to 30 minutes after administration” and the AUC [6, 13] was 9890 ng·h/mL. For the same compound, the AUCCSF [6, 13] was 13727.9 ng·min/mL, the Cmax [6, 13] was 2220 ng/mL and the Tmax [6, 13] was 0.167 h. The Kp ([6]; male, Wistar, rat, iv, 20 mg/kg, Kpu (brain transfer ratio)) was 0.028, the “CSF Cmax in intranasal administration relative to intraduodenal administration” value ([6]; rat, 20 mg/kg) was “four times larger than that in intraduodenal administration” and the “CSF Cmax in intranasal administration relative to intravenous administration” value ([6]; rat, 20 mg/kg) was “twice larger than that in intravenous administration”. For the same compound, the “ratio of plasma concentration and CSF concentration” value ([6]; rat, 20 mg/kg) was “almost constant”, the AUC(0-inf) ([7]; male, Wistar, in vivo, inhaled or intranasal, rat plasma, i.n. 10 mg/kg) was 4770 ng·h/mL and the AUC(0-t) ([7]; male, Wistar, in vivo, inhaled or intranasal, rat plasma, i.n. 10 mg/kg, 0 to 7 hours, read-out: AUC0-7 (converted)) was 4380 ng·h/mL. The Tmax ([7]; male, Wistar, in vivo, rat plasma, i.n. 10 mg/kg) was 0.333 h, the Cmax ([7]; male, Wistar, in vivo, rat plasma, i.n. 10 mg/kg, 50 mg/mL (Example 5)) was 5270 ng/mL and the F0-7 ([7]; rat, i.n. 10 mg/kg vs i.v. 20 mg/kg, 0 to 7 hours) was 90.41%. The AUC(0-inf) (in vivo) was 9890 ng·h/mL and the MRT inf (in vivo) was 1.34 h.
